The text below walks through data of publication PMC4368888, “Preclinical to Clinical Translation of CNS Transporter Occupancy of TD-9855, a Novel Norepinephrine and Serotonin Reuptake Inhibitor” (International Journal of Neuropsychopharmacology, 2015).

On the set-up of data set [1]: method as in Theravance Biopharma US, Inc., data on file. To be noted: human; ref Theravance Biopharma US, Inc., data on file; cited from earlier work.
Data set [2] concerns the target SERT (Homo sapiens, UniProt P31645). Kind of data set: Human PET SERT occupancy with [11C]-DASB. Format: in vivo. On the set-up: from tissue; host or cells: brain of healthy male volunteers, in vivo PET. As to the method: This was a Phase 1, open-label, single-dose study in healthy male volunteers to evaluate NET and SERT occupancy in the human brain after oral administration of TD-9855 using PET.
The study was conducted at the Yale PET Center in accordance with the principles of the International Conference on Harmonisation’s Technical Requirements for Registration of Pharmaceuticals for Human Use Guideline for Good Clinical Practice. The protocol was approved by the Yale University Human Investigation Committee and the Yale–New Haven Hospital Radiation Safety Committee. SERT and NET occupancy were determined using the selective radiotracers [^11C]-DASB ([Meyer et al., 2004]; [Takano et al., 2006]; [Abanades et al., 2011]; [Nogami et al., 2013]) and [^11C]-MRB. Selection of the radiotracers and the dose of TD-9855 were flexible to minimize the number of PET scans.
Eligible subjects were enrolled and received either [^11C]-MRB and/or [^11C]-DASB. Each subject underwent up to 5 PET scans over a period of up to 8 days. Multiple dose levels of TD-9855 (up to 20mg) were explored. All randomized subjects received the NET tracer (single-tracer evaluation) and some subjects (n = 3) received both the NET and SERT tracers sequentially (dual-tracer evaluation) in the baseline and post-dose period. […] In the dual-tracer evaluation, subjects completed sequential [^11C]-DASB and [^11C]-MRB baseline scans with each tracer, sequential post-dose scans with each tracer at 7–10hr post-dose, and one follow-up scan with [^11C]-MRB on or between Days 3 and 7. […]
For both studies, binding potentials (BP ND) were estimated using a method based on a reference region input curve. […] The suitability of MRTM2 to estimate [^11C]-MRB BP ND values was evaluated in a previous study ([Hannestad et al., 2010]), in which it was shown that MRTM2 BP ND estimates are highly correlated with BP ND estimated with arterial blood sampling and the multilinear analysis 1 (y = 0.909 x + 0.078, r^2 = 0.821, where x represents the MA1 BP ND values and y represents the MRTM2 BP ND values). […]

Data set [3] addresses NET (Homo sapiens, UniProt P23975). Kind of data set: [3H]-NE uptake inhibition in HEK293-hNET cells. Type of data set: cell-based. More on the design: expressed in transfected cells; host or cells: HEK293 (HEK293-hNET), stably transfected. From the text: The in vitro pharmacology of TD-9855 (4-[2-(2, 4, 6-trifluorophenoxymethyl)phenyl]piperidine; Figure 1) at human recombinant and rat native monoamine transporters was characterized as described previously ([Tsuruda et al., 2010]; [Shen et al., 2013]). Radioligands were sourced commercially (Perkin Elmer Life Sciences or GE Healthcare Life Sciences). Briefly, membranes prepared from HEK293 (Human Embryonic Kidney 293) cells stably-transfected with human recombinant SERT (HEK293-hSERT), NET (HEK293-hNET), or DAT ([…]) were incubated for 1hr at 22°C in the absence, or presence, of TD-9855 and [^3H]-citalopram (1.0nM) for SERT, [^3H]-nisoxetine (2.0nM) for NET, and [^3H]-WIN35428 (3.0nM) for DAT in 50mM Tris-HCl, 120mM NaCl, 5mM KCl, 0.025% BSA, 100 μM ascorbic acid, pH 7.4. Rat cortical membrane preparations were incubated with [^3H]-citalopram (2.0nM) for SERT or [^3H]-nisoxetine (4.0nM) for NET for 1hr at 22°C. […] Binding and uptake assays were terminated by rapid filtration and radioactivity, determined by liquid scintillation spectroscopy.

The structures appear in SMILES notation. Several values for one entry are separate records, joined by “and”; a condition that tells them apart may be missing. Equal entries are not always repeated.

SERT, sequence (P31645 whole entry): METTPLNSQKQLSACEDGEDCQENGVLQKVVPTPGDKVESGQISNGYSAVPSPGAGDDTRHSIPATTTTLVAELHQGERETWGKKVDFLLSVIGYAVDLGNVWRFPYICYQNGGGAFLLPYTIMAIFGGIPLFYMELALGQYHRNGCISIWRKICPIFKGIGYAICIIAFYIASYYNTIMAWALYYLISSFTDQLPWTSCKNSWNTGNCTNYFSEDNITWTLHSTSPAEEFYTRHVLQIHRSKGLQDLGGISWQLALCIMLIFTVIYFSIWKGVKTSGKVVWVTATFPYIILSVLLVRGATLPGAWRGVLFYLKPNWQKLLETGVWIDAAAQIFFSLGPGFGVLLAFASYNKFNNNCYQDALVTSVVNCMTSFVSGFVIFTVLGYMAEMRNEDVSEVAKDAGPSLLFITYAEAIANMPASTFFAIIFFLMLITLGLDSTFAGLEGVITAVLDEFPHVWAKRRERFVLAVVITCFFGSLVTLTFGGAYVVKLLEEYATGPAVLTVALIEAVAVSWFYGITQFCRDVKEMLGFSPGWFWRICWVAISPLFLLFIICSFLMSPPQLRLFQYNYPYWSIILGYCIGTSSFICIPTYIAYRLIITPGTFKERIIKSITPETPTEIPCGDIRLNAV
NET, sequence (P23975 whole entry): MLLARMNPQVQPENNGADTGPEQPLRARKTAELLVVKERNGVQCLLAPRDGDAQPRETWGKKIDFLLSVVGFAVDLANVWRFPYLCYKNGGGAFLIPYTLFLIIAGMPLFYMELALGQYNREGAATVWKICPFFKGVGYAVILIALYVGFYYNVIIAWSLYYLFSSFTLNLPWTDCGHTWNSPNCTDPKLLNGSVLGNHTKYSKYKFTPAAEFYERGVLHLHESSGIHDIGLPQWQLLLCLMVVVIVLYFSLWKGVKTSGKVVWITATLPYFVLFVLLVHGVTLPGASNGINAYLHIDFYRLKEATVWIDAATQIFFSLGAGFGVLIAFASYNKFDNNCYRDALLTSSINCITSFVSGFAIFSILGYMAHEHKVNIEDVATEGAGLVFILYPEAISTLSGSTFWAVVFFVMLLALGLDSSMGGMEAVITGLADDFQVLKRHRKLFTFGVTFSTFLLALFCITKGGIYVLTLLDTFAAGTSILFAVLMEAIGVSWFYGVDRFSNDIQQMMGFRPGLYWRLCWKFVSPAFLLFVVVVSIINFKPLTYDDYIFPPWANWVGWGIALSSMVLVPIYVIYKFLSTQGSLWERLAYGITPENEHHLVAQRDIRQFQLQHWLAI

`Fc1cc(F)c(OCc2ccccc2C2CCNCC2)c(F)c1` [TD-9855, 4-[2-(2,4,6-trifluorophenoxymethyl)phenyl]piperidine]: the plasma protein binding in data set [1] is given as 79.1%. The “average SERT occupancy” value in data set [2] (20mg single oral dose, Day 1, mean ± SD, n = 3, at plasma level 6.35ng/mL) is on record as 25 (±8) %. Further, the “Apparent SERT Occupancy Day 1” value in data set [2] (20 mg single oral dose, individual subjects, rApp ± SE, listed as TH-9855) was 15.5±2.6% and 29.1±2.2% and 30.5±3.1%. Also, the “levels of SERT occupancy across subjects” value in data set [2] (single dose of 20mg, n = 3) is listed as 15–30%. For the same compound, the “selectivity for inhibition of NET over SERT” value in data set [3] (human transporters, neurotransmitter uptake) was determined as 4 fold. For the same compound, the “inhibitory selectivity for NE” value in data set [3] (uptake in vitro, human and rat transporters) is 4- to 10 fold.
